Laboratory results reported in ChEMBL document CHEMBL1148378 (J Med Chem, 2004).

How the values were obtained:
Matrilysin = biological target: T1, Matrilysin (Homo sapiens, UniProt P09237); assay: Inhibition of Matrix metalloprotease-7
T1 sequence (P09237 whole entry): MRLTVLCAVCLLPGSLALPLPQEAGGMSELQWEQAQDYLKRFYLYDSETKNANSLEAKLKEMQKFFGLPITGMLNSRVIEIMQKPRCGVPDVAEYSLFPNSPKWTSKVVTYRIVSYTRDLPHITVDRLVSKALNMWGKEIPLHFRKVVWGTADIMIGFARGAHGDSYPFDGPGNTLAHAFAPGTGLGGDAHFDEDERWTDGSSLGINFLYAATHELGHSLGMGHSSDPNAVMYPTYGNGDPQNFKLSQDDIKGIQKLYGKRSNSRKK

Interstitial collagenase = biological target: T2, Interstitial collagenase (Homo sapiens, UniProt P03956); assay: Inhibition of matrix metalloprotease-1
T2 sequence (P03956 whole entry): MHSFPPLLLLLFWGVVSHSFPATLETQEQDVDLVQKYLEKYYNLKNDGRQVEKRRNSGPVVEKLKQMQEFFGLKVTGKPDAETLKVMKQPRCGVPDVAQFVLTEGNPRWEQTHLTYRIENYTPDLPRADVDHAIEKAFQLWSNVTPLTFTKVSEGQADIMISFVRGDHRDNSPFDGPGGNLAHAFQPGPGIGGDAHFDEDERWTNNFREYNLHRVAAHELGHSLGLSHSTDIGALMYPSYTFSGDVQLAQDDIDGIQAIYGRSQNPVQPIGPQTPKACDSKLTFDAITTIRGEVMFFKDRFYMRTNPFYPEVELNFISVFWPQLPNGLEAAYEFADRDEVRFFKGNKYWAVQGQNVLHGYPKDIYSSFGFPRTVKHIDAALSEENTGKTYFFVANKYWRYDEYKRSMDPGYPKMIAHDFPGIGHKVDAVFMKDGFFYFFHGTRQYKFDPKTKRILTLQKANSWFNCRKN

Neutrophil collagenase = Neutrophil collagenase (Homo sapiens, UniProt P22894); assay: Inhibition of matrix metalloprotease-8
Sequence of Neutrophil collagenase (P22894 whole entry): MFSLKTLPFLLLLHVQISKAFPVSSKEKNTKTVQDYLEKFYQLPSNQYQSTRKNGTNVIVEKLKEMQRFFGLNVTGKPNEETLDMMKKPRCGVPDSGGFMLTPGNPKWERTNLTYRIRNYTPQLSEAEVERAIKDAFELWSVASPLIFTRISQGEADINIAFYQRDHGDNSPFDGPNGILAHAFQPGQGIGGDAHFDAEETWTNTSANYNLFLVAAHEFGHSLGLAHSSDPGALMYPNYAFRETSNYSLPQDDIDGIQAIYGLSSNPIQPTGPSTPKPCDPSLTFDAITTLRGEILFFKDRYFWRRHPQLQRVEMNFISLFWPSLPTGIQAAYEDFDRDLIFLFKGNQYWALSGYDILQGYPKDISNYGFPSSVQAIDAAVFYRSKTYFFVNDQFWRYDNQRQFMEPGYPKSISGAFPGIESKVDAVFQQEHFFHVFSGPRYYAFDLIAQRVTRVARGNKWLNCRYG

[1] = biological target: Matrix metalloproteinase-9 (Homo sapiens, UniProt P14780); assay: Inhibition of Matrix metalloprotease-9
Sequence of Matrix metalloproteinase-9 (P14780 whole entry): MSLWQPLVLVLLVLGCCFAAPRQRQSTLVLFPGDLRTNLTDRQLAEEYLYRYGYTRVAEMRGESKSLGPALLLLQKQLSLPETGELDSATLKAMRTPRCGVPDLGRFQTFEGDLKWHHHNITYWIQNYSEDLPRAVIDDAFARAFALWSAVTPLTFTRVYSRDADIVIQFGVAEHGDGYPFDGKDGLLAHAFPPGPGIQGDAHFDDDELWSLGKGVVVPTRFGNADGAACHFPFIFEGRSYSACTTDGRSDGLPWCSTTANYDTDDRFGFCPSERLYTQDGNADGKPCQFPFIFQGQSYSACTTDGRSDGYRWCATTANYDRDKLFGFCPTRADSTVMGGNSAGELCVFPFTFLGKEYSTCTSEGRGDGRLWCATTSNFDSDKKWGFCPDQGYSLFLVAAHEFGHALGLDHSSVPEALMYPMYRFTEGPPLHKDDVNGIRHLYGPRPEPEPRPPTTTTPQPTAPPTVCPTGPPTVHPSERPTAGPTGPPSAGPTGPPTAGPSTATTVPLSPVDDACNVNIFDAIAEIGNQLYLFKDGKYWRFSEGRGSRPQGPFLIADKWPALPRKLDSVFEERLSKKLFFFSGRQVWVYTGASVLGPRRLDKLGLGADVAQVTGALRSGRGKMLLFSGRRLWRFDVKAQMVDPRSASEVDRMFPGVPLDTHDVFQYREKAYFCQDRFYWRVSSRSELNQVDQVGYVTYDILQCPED

[2] = biological target: 72 kDa type IV collagenase (Homo sapiens, UniProt P08253); assay: Inhibition of Matrix metalloprotease-2
Sequence of 72 kDa type IV collagenase (P08253 whole entry): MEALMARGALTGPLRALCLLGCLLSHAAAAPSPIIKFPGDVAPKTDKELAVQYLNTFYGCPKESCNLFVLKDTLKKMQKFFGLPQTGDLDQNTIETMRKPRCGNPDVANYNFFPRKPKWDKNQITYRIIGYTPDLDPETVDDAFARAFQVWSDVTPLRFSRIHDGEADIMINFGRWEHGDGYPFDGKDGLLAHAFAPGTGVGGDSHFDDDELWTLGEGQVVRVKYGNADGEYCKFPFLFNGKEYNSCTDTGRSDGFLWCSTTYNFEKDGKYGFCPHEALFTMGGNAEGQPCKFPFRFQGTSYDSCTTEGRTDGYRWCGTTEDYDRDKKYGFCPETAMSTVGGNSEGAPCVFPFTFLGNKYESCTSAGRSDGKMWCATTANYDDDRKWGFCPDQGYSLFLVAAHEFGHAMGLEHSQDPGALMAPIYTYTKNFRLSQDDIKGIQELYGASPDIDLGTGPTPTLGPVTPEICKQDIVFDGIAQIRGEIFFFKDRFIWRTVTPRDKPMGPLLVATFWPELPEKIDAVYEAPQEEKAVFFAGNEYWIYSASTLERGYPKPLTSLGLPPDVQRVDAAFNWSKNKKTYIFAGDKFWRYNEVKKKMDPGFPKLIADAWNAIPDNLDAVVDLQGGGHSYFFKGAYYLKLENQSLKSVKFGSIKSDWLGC

Collagenase 3 = Collagenase 3 (Homo sapiens, UniProt P45452); assay: Inhibition of matrix metalloprotease-13
Stromelysin-3 = biological target: T3, Stromelysin-3 (Mus musculus, UniProt Q02853); assay: Inhibition of Matrix metalloprotease-11
T3 sequence (Q02853 whole entry): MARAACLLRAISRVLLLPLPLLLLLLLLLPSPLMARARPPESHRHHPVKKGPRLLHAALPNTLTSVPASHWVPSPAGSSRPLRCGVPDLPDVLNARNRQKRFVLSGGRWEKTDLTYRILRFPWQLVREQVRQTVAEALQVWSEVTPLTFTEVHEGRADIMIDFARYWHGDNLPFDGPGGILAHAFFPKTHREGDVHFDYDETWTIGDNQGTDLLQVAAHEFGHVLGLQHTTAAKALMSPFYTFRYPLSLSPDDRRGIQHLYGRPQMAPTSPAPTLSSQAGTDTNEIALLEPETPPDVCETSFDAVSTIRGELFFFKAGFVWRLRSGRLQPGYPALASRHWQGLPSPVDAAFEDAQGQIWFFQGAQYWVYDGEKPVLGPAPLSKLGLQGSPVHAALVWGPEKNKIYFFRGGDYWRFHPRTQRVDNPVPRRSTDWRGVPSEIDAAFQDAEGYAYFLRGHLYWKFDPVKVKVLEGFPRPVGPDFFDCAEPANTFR

[3] = biological target: Matrix metalloproteinase-14 (Homo sapiens, UniProt P50281); assay: Inhibition of Matrix metalloprotease-14

Ki (Matrilysin) | Ki (Interstitial collagenase) | Ki (Neutrophil collagenase) | Ki [1] | Ki [2] | Ki (Collagenase 3) | Ki (Stromelysin-3) | Ki [3] | SMILES
> 2 µM | > 2 µM |  |  |  |  |  |  | NC(=O)C(Cc1c[nH]c2ccccc12)NC(=O)C(CCCc1ccccc1)CP(=O)(O)C(Cc1ccccc1)NC(=O)OCc1ccccc1 (stereo not given)
 |  | 200 µM | 148 µM | 200 µM | 200 µM | 0.41 µM | 30 µM | NC(=O)C(Cc1c[nH]c2ccccc12)NC(=O)C(CSc1ccccc1OC(F)(F)F)CP(=O)(O)C(Cc1ccccc1)NC(=O)OCc1ccccc1 (stereo not given)
 |  | 38.9 µM | 35.6 µM | 30 µM | 15.7 µM | 0.23 µM | 160 µM | COc1ccccc1SCC(CP(=O)(O)C(Cc1ccccc1)NC(=O)OCc1ccccc1)C(=O)NC(Cc1c[nH]c2ccccc12)C(N)=O (stereo not given)
 |  | 18.4 µM | 3.91 µM | 4.65 µM | 4.7 µM | 0.11 µM | 30.1 µM | NC(=O)C(Cc1c[nH]c2ccccc12)NC(=O)C(CSc1ccccc1Br)CP(=O)(O)C(Cc1ccccc1)NC(=O)OCc1ccccc1 (stereo not given)
